Reference: article PMC11587510, “Aromatic Amino Acid Hydroxylases as Off-Targets of Histone Deacetylase Inhibitors” (ACS Chemical Neuroscience, 2024)
Where “and” joins values, the source holds several entries; their conditions need not be identical. Equal values may be shown once. Read-outs that look alike come from different tables or passages of the source.

Assays:
[1] = molecular target: T1, TPH1 (Homo sapiens, UniProt P17752); assay: Differential scanning fluorimetry (DSF) thermal stability assay; format: binding; conditions: for Tm (°C) ± SD (°C), primary screen / ΔTm at 50 µM / ΔTm (°C) ± SD (°C), primary screen: DSF, 50 μM compound; for Tm (°C) ± SD (°C), primary screen: 0.075 mg/mL TPH1, 0.5% DMSO, three independent measurements (a: duplicates); for ΔTm at 50 µM / ΔTm (°C) ± SD (°C), primary screen: vs averaged Tm of 0.5% DMSO controls; for ΔTm at 50 µM: read-out: ΔTm (°C) ± SD (°C), primary screen; for Kd: read-out: apparent KD (μM), dose-response
T1 construct: doubly truncated human TPH1 (ΔNH102-ΔCOOH402); made in house; host or cells: E. coli BL21(DE3)
T1 sequence (P17752 102-402): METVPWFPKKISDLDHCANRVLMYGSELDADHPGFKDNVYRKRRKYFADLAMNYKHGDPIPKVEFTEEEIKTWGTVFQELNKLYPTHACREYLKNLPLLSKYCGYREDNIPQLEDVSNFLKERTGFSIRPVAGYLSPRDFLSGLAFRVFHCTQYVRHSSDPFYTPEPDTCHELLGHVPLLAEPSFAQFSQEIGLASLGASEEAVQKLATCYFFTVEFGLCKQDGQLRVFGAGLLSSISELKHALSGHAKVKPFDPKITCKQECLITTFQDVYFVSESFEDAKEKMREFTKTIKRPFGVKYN
Experimental: A fluorescence-based thermal stability assay (differential scanning fluorimetry, DSF) was used for testing the effects of HDIs on the thermal stability of TPH1.
For initial high throughput screening (HTS), compounds were prepared at a concentration of 10 mM (in some cases, 5 mM) in 100% DMSO. Initial HTS screening was performed on TPH1 with and without compounds using a LightCycler 480 Real-Time PCR System (Roche Applied Science). TPH1 was diluted to 0.075 mg/mL in 50 mM Tris pH 8.0, 200 mM NaCl, 0.5 mM TCEP, and 5% glycerol with 5x SYPRO Orange. Compounds were added to a final concentration of 50 μM. Controls with 0.5% DMSO were performed on each 384-well microplate. Unfolding curves were recorded from 20 to 95 °C at a scan rate of 2 °C/min and monitored at excitation = 465 nm and emission = 610 nm. Selected hits were validated further by serial dilution from 250 μM to 122 nM, keeping the DMSO concentration constant at 2%.
DSF data were analyzed using HTSDSF Explorer.[55] Melting temperature (Tm) was calculated from the maximum value of the first derivative of the unfolding curve. ΔTm (Tm with compound–averaged Tm in DMSO controls) was plotted for all validated curves and a threshold of 2 °C was set (typically, cutoff at ΔTm = 3-fold the SD of the Tm of the DMSO control).
Preliminary binding constants (KD) were calculated by fitting data to the equation [drawing 1] where ΔH0 is the enthalpy of the unfolding of the protein in the presence of ligand ([L]), and R is the gas constant.

[2] = Solubility observed in DSF dose-response; format: physicochemical; conditions: highest concentrations removed before curve fitting
[3] = molecular target: T2, human TH isoform 1 (TH1) (Homo sapiens, UniProt P07101); assay: TH enzyme activity assay (HPLC, L-DOPA); format: biochemical; conditions: best-fit IC50 (± SE), nonlinear regression; N.A. = no activity
T2 construct: Full-length human TH isoform 1 (TH1); His6-ZZ fusion partner (one of the two preparations only) (cleaved yes); made in house; host or cells: E. coli BL21(DE3) pLysS (pET3a) or BL21 CodonPlus (pET-ZZ-1a)
T2 sequence (P07101 1-497 isoform P07101-3): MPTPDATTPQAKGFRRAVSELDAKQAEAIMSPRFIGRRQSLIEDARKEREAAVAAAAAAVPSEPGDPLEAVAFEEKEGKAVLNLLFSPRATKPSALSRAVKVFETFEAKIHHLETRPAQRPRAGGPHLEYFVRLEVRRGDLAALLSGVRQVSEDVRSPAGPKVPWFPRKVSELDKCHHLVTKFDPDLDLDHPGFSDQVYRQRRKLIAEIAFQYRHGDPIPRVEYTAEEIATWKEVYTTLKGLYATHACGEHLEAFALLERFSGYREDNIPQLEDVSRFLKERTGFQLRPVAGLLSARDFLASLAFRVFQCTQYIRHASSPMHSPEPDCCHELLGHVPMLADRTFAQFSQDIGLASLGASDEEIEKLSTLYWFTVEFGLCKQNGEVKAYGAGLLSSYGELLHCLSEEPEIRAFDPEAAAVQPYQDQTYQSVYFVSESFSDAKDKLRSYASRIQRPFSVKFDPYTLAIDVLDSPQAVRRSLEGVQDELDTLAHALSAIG
Experimental: The activity of purified PAH, TH, TPH1, and TPH2 was measured using high-performance liquid chromatography (HPLC) as previously described.[50],[56],[57]
TH activities were performed in a standard reaction mixture containing 40 mM Hepes (pH 7.0), 0.1 mg/mL catalase, 10 μM ferrous ammonium sulfate, and 50 μM L-Tyr. Compounds were incubated with TH (0.01 mg/mL) in the reaction mixture for 10 min on ice. The enzymatic reaction was initiated by adding 200 μM BH4 and 2 mM DTT (final concentrations) and stopped by precipitation with 2% (v/v) acetic acid in ethanol after 5 min at 37 °C. The product, L-DOPA, was quantified by HPLC utilizing a fluorescence monitor set at 281 and 314 nm for excitation and emission, respectively.
GraphPad Prism (version 10; La Jolla, CA) was used for analyzing the enzyme inhibition data.

[4] = molecular target: T3, human PAH (Homo sapiens, UniProt P00439); assay: PAH enzyme activity assay (HPLC, L-Tyr); format: biochemical; conditions: best-fit IC50 (± SE), nonlinear regression, N.A. = no activity
T3 construct: Full-length human TH isoform 1 (TH1), human PAH, human TPH2, and doubly truncated human TPH1; made in house; host or cells: E. coli TB1
T3 sequence (P00439 1-452): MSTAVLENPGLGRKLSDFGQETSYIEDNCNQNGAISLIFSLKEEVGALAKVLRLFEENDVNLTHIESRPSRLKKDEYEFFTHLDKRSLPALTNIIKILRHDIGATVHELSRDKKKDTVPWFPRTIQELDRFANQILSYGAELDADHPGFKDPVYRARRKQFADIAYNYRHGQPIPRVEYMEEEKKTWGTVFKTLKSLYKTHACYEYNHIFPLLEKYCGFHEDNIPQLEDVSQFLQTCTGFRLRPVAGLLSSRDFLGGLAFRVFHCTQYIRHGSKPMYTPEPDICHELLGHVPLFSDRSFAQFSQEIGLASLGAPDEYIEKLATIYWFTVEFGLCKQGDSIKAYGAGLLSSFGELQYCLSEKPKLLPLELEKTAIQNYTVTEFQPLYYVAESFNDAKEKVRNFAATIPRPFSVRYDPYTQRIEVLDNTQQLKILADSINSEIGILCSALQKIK

[5] = molecular target: T4, human TPH2 (Homo sapiens, UniProt Q8IWU9); assay: TPH2 enzyme activity assay (HPLC); format: biochemical; conditions: best-fit IC50 (± SE), nonlinear regression; N.A. = no activity
T4 construct: Full-length human TH isoform 1 (TH1), human PAH, human TPH2, and doubly truncated human TPH1; MBP (cleaved yes); made in house; host or cells: E. coli BL21(DE3)
T4 sequence (Q8IWU9 1-490): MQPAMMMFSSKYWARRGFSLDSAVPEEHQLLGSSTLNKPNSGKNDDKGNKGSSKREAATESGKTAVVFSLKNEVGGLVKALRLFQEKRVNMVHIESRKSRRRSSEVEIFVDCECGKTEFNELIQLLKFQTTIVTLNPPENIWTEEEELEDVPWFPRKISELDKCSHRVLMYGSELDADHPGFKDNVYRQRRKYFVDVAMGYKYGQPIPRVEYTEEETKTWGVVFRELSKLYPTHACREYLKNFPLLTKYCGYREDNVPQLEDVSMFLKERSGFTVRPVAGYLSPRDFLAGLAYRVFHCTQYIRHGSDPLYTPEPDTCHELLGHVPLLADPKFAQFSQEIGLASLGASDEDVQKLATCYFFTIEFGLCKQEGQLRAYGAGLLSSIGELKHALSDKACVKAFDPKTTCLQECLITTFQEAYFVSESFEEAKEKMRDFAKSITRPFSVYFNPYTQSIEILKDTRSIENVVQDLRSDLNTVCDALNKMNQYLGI

[6] = molecular target: T5, doubly truncated human TPH1 (ΔNH102-ΔCOOH402) (Homo sapiens, UniProt P17752); assay: TPH1 enzyme activity assay (HPLC, 5-OH-Trp); format: biochemical; conditions: for IC50: best-fit IC50 (± SE), nonlinear regression, N.A. = no activity
T5 construct: doubly truncated human TPH1 (ΔNH102-ΔCOOH402); made in house; host or cells: E. coli BL21(DE3)
T5 sequence (P17752 102-402, stated change not applied): as the sequence (P17752 102-402) above

[7] = system: HDAC 1; conditions: human recombinant HDAC; ref 5 (10.1021/acs.jmedchem.8b01090); cited from earlier work
[8] = system: HDAC 6; conditions: human recombinant HDAC; ref 5 (10.1021/acs.jmedchem.8b01090); cited from earlier work
[9] = molecular target: T6, human recombinant HDAC1 (Homo sapiens, UniProt Q13547); assay: HDAC1 activity assay (homogeneous fluorescence, ZMAL); format: biochemical; conditions: 1.11–30 μM compound, DMSO (5%) control
T6 construct: purchased BPS Bioscience 50051
T6 sequence (Q13547 whole entry): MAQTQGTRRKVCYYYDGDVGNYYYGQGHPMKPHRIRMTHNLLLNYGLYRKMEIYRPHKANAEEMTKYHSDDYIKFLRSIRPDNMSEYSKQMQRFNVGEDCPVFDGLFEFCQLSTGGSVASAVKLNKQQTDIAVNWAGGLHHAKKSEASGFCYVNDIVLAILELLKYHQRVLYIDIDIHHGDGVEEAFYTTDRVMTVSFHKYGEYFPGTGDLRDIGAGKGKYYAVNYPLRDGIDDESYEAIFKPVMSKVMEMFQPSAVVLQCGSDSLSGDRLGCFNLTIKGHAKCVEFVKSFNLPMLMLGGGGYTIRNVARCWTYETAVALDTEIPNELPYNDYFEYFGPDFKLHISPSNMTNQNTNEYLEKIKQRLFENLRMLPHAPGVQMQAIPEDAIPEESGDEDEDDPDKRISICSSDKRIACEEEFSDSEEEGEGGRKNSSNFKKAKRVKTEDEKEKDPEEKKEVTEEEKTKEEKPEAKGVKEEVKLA

[10] = system: HDAC 8; conditions: human recombinant HDAC; ref 1 (PMID: 26443078); cited from earlier work
[11] = estimated from DSF dose-response, 2% DMSO

| SMILES | Tm (°C) ± SD (°C), primary screen [1] | ΔTm (°C) ± SD (°C), primary screen [1] | Kd [1, 11] | other results |
| --- | --- | --- | --- | --- |
| Oc1ccccc1-c1nc2ccccc2o1 [2-(2-OH-phenyl)benzoxazol, 2-(2-hydroxyphenyl)benzoxazole, reference compound] | 57.6 ± 0.7 °C | – | – | ΔTm at 50 µM [1]: 2.3 ± 0.9 °C |
| Cc1ccc(C(=O)NO)cc1C(=O)Nc1ccc(Cl)cc1 [EG23, 3-(4-Chlorophenylcarbamoyl)-N-hydroxy-4-methylbenzamide] | 58.2 ± 0.2 °C | 2.7 ± 0.2 °C | 14.1 µM | – |
| Cc1cc2cc(NS(=O)(=O)c3cc(C(=O)NO)ccc3Cl)ccc2n(C)c1=O [EG29, 4-Chloro-3-[(1,3-dimethyl-2-oxo-1,2-dihydroquinolin-6-yl)sulfamoyl]-N-hydroxybenzamide] | 57.8 ± 0.0 °C | 2.3 ± 0.2 °C | 10.3 µM | – |
| O=C(NO)c1coc(C(c2ccccc2)c2ccccc2)n1 [JS32, 2-(diphenylmethyl)-1,3-oxazole-4-carbohydroxamic acid] | 58.5 ± 0.2 ^a °C | 3.1 ± 0.0 °C | 30.9 µM | solubility at the highest concentrations [2]: solubility issues |
| O=C(NO)c1ccc(CN2c3ccccc3Sc3ccccc32)cc1 [KV46, 4-[(10H-phenothiazin-10-yl)methyl]-N-hydroxybenzamide] | 59.1 ± 0.5 ^a °C | 3.6 ± 0.3 °C | > 100 µM | solubility at the highest concentrations [2]: solubility issues |
| COc1ccc2c(c1)N(Cc1ccc(C(=O)NO)cc1)c1ccccc1S2 [KV103, N-Hydroxy-4-[(2-methoxy-10H-Phenothiazin-10-yl)methyl]benzamide] | 59.6 ± 0.7 °C | 4.3 ± 0.5 °C | 49.4 µM | IC50 [3]: 100 ± 128 µM; IC50 ([4]; read-out: IC50 (μM) PAH): 8.12 ± 1.67 µM; IC50 [5]: 9.78 ± 17.2 µM; IC50 [6]: 106 ± 177 µM; inhibition of TPH1 activity at 50 μM ([6]; compound 50 μM, 0.5% DMSO): more than 50%; IC50 [7]: 2.07 ± 0.19 µM; IC50 [8]: 0.01 ± 0.001 µM |
| N[C@@H](Cc1ccc(Cl)cc1)C(=O)O [L-PCPA, 4-chloro-L-phenylalanine] | – | – | – | effect on HDAC1 activity [9]: do not inhibit |
| COc1ccc(C(=O)NO)cc1OCc1ccccc1 [PZ031, 3-Benzyloxy-4-methoxybenzhydroxamic acid] | 57.0 ± 0.2 °C | 1.6 ± 0.1 °C | 54.6 µM | – |
| COC(=O)[C@H](Cc1ccc(-c2ccc(C)cc2)cc1)NC(=O)CCCCCCC(=O)NO [SW189] | 58.0 ± 0.3 °C | 2.7 ± 0.0 °C | – | – |
| O=C(NO)c1cc2ccccc2[nH]1 [TB74, 1H-Indole-2-hydroxamic acid] | 59.7 ± 0.4 °C | 4.4 ± 0.4 °C | 0.7 µM and 1.4 µM | solubility at the highest concentrations [2]: solubility issues; inhibition of TPH1 activity at 50 μM ([6]; compound 50 μM, 0.5% DMSO): no significant inhibition |
| O=C(NO)c1cccc(NCc2ccccc2)c1 [TH28, 3-N-Benzylamino-benzohydroxamate] | 58.1 ± 0.3 °C | 2.8 ± 0.1 °C | 76.3 µM | – |
| COc1ccc(C(=O)NO)cc1NS(=O)(=O)c1ccc(C)cc1 [TH71, 3-(N-para-touluenyl)-sulfonamido-4-methoxy-benzohydroxamate] | 60.0 ± 0.3 °C | 4.7 ± 0.1 °C | 1.8 µM | – |
| Nc1ccccc1NC(=O)c1ccc(CNC(=O)OCc2cccnc2)cc1 [entinostat, reference compound] | 56.0 ± 0.4 °C | – | – | ΔTm at 50 µM [1]: 0.7 ± 0.3 °C |
| Cc1ccn(-c2cc(Cl)ccc2[C@@H](Oc2cc(-c3ccc(C[C@H](N)C(=O)O)cc3)nc(N)n2)C(F)(F)F)n1 [telotristat] | – | – | – | IC50 [3]: 4.2 µM; effect on HDAC1 activity [9]: do not inhibit; IC50 ([4]; read-out: IC50 (μM) PAH): 4.9 µM |
| O=C(CCCCCCC(=O)Nc1ccccc1)NO [vorinostat, reference compound] | 56.4 ± 1.9 °C | – | – | IC50 ([4]; IC50 (μM) PAH): 1.72 ± 0.61 µM; ΔTm at 50 µM [1]: 1.1 ± 2.1 °C; IC50 [10]: […] |
| CC(C)c1cccc(=O)c(O)c1 [β-thujaplicin, reference compound] | – | – | – | IC50 [3]: 1.37 µM and 1.4 µM; IC50 ([4]; read-out: IC50 (μM) PAH): 0.46 µM and 0.5 µM; IC50 [5]: 12.9 µM; effect of increasing compound concentration on the Tm of TPH1 ([1]; DSF dose-response): concentration-dependent shift by decreasing the Tm; ΔTm at 50 µM [1]: -1.7 ± 0.1 °C; apparent KD (μM), dose-response [1, 11]: very low affinity; IC50 [6]: 12.6 µM; inhibition at 50 µM ([6]; compound 50 μM, 0.5% DMSO): > 50% |
